Legend:
[1] = system: RAW 264.7 mouse macrophage cells; assay type: cell-based; settings: 20 μg/ml; 1 μg/ml AraLAM
Procedure: The ability of compounds to neutralize the stimulation of immune cells by both Gram-negative and Gram-positive bacterial products was tested. Bacterial products stimulate cells of the immune system to produce inflammatory cytokines and when unchecked this can lead to sepsis. Initial experiments utilized the murine macrophage cell line RAW 264.7, which was obtained from the American Type Culture Collection, (Manassas, Va.), the human epithelial cell line, A549, and primary macrophages derived from the bone marrow of BALB/c mice (Charles River Laboratories, Wilmington, Mass.). The cells from mouse bone marrow were cultured in 150-mm plates in Dulbecco's modified Eagle medium (DMEM; Life Technologies, Burlington, ON) supplemented with 20% FBS (Sigma Chemical Co, St. Louis, Mo.) and 20% L cell-conditioned medium as a source of M-CSF. Once macrophages were 60-80% confluent, they were deprived of L cell-conditioned medium for 14-16 h to render the cells quiescent and then were subjected to treatments with 100 ng/ml LPS or 100 ng/ml LPS+20 μg/ml peptide for 24 hours. The release of cytokines into the culture supernatant was determined by ELISA (R&D Systems, Minneapolis, Minn.). […] The samples were centrifuged for 5 min at 2000×g, the plasma was collected and then stored at −20° C. until being analyzed for IL-8 by ELISA (R&D Systems). […] Survival was monitored for 48 hours post injection.

[2] = system: human bronchial epithelial cells (HBE); assay: LDH release assay (Cytotoxicity Detection Kit); assay type: cell-based; settings: 100 μg/ml, 24 hours; no peptide control 1.0 ± 0.05
In short: (§1)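 Both read-outs were colorimetric at OD490 on HBE cells after 24 h with 100 μg of each peptide. The WST-1 assay reported viability through mitochondrial dehydrogenase cleavage of the tetrazolium salt. The LDH assay tested the removed supernatant for enzyme leaked from membrane-damaged cells.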

HBE cells = assay: WST-1 assay (cell viability); assay type: cell-based, human
In short: as §1

NFκB subunits = assay: Translocation of NFκB subunits in nuclear extracts of THP-1 cells (Western blot, ELISA); assay type: cell-based, human; settings: 60 min

Question: For Polymyxin B, which “Inhibition of TNF-α” value [1] is on record?
Answer: 15 ± 2%

Question: What about the “LDH Release (OD490 nm)” value [2] of the same substance?
Answer: 1.21 ± 0.03 OD490 nm

Question: What about the “OD490 nm (WST-1 cell viability)” value (HBE cells) of the same substance?
Answer: 1.30 ± 0.13 OD490 nm

Question: And the “inhibition of LPS-induced p50 translocation” value (NFκB subunits)?
Answer: 82±5%

Question: And the “inhibition of LPS-induced p65 translocation” value (NFκB subunits)?
Answer: 80±90%
